Experimental data from patent US5294632A, “Phosphono/biaryl substituted dipetide derivatives” (Ciba-Geigy Corporation, priority 1992, dated 1994).

How the values were obtained:
[1] = test system: DOCA-salt hypertensive rats; assay: antihypertensive effect in DOCA-salt hypertensive rats; format: in vivo; details: 30 mg/kg p.o., in PEG 400; DOCA-salt hypertensive rat
Experimental: The antihypertensive effect can be determined in desoxycorticosterone acetate (DOCA)-salt hypertensive rats.
DOCA-salt hypertensive rats (280-380 g) are prepared by the standard method. Rats underwent a unilateral nephrectomy and one week later are implanted with silastic pellets containing 100 mg/kg of DOCA. The rats are maintained on 1% NaCl/0.2% KCl drinking water for three to five weeks until sustained hypertension is established. The antihypertensive activity is evaluated at this time.
Two days before an experiment, the rats are anesthetized with methoxyflurane and instrumented with catheters in the femoral artery to measure arterial blood pressure. Forty-eight hours later, baseline arterial pressure and heart rate are recorded during a 1 hour period. The test compound (30 mg/kg p.o.) or vehicle is then administered and the same cardiovascular parameters are monitored for an additional 5 hours.

plasma ANF levels = assay: effect on rat plasma ANF concentration during ANF infusion; format: in vivo, Male Sprague-Dawley rats; details: about 1-30 mg/kg p.o., in 10% ethanol/polyethylene glycol 400; ANF infused 450 ng/kg/min i.v.
Experimental: The effect of the compounds of the invention on rat plasma ANF concentration can be determined as follows:
Male Sprague-Dawley rats (275-390 g) are anesthetized with ketamine (150 mg/kg)/acepromazine (10%) and instrumented with catheters in the femoral artery and vein to obtain blood samples and infuse ANF, respectively. The rats are tethered with a swivel system and are allowed to recover for 24 hours before being studied in the conscious, unrestrained state.
In this assay, plasma ANF levels are determined in the presence and absence of NEP inhibition. On the day of study, all rats are infused continuously with ANF at 450 ng/kg/min. i.v. for the entire 5 hours of the experiment. Sixty minutes after beginning the infusion, blood samples for baseline ANF measurements are obtained (time 0) and the rats are then randomly divided into groups treated with the test compound or vehicle. Additional blood samples are taken 30, 60, 120, 180 and 240 minutes after administration of the test compound.
Plasma concentrations are determined by a specific radioimmunoassay. […] The supernatant is decanted and the pellets counted in a gamma counter. […] Plasma ANF levels are expressed as a percent of those measured in vehicle-treated animals which received ANF alone (450 ng/kg/min i.v.).

ANF-induced natriuresis = assay: potentiation of the natriuretic effect of ANF in anesthetized rats; format: in vivo, Male Sprague-Dawley rats; details: 30 mg/Kg in polyethylene glycol 400, intraduodenally; ANF 1 μg/kg i.v. bolus
Experimental: The potentiation of the natriuretic effect of ANF can be determined as follows:
Male Sprague-Dawley rats (280-360 g) are anesthetized with Inactin (100 mg/kg i.p.) and instrumented with catheters in the femoral artery, femoral vein and urinary bladder to measure arterial pressure, administer ANF and collect urine, respectively. A continuous infusion of normal saline (33 μl/min) is maintained throughout the experiment to promote diuresis and sodium excretion. The experimental protocol consists of an initial 15 minute collection period (designated as pre-control) followed by three additional collection periods. Immediately after completion of the pre-control period, test compound or vehicle is administered; nothing is done for the next 45 minutes. […] At the conclusion of this period, ANF is administered (1 μg/kg i.v. bolus) to all animals and arterial pressure and renal parameters are determined during two consecutive 15 minutes collection periods.
Mean arterial pressure, urine flow and urinary sodium excretion are determined for all collection periods. Blood pressure is measured with a Gould p50 pressure transducer, urine flow is determined gravimetrically, sodium concentration is measured by flame photometry, and urinary sodium excretion is calculated as the product of urine flow and urine sodium concentration.

[2] = target: T1, Neutral endopeptidase 3.4.24.11 (Rattus norvegicus, UniProt P07861); assay: in vitro inhibition of neutral endopeptidase (NEP) 3.4.24.11, GAAP substrate assay; format: biochemical; details: rat kidney cortex membranes, 500 μM GAAP substrate, pH 7.4, 25° C., 10 minutes
T1 construct: rat kidney cortex membranes prepared by method of Maeda et al, 1983; from tissue; host or cells: rat kidney cortex membranes
T1 sequence (P07861 1-750): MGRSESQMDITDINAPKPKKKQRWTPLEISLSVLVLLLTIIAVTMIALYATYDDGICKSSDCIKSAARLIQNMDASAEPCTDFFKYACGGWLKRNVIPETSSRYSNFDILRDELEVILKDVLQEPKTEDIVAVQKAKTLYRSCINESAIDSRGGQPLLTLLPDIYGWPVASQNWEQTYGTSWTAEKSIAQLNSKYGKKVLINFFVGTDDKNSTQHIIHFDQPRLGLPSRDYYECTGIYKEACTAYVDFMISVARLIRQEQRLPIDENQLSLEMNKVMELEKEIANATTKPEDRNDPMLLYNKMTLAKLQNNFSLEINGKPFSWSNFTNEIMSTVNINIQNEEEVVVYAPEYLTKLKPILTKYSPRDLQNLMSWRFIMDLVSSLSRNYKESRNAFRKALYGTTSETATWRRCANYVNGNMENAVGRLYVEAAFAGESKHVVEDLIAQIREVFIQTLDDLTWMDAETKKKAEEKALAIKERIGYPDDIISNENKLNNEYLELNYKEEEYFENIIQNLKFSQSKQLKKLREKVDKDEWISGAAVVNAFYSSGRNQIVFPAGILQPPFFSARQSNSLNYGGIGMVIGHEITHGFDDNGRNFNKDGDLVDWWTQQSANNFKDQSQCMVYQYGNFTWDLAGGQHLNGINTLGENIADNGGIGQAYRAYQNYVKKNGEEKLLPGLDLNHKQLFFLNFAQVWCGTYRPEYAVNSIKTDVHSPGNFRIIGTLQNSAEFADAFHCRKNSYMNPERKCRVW
Experimental: The in vitro inhibition of neutral endopeptidase (NEP) 3.4.24.11 can be determined as follows:
Neutral endopeptidase 3.4.24.11 activity is determined by the hydrolysis of the substrate glutaryl-Ala-Ala-Phe-2-naphthylamide (GAAP) using a modified procedure of Orlowski and Wilk (1981). The incubation mixture (total volume 125 μl) contains 4.2 μg of protein (rat kidney cortex membranes prepared by method of Maeda et al, 1983), 50 mM tris buffer, pH 7.4 at 25° C., 500 μM substrate (final concentration), and leucine aminopeptidase M (2.5 μg). The mixture is incubated for 10 minutes at 25° C. and 100 μl of fast garnet (250 μg fast garnet/ml of 10% Tween 20 in 1M sodium acetate, pH 4.2) is added. Enzyme activity is measured spectrophotometrically at 540 nm. One unit of NEP 24.11 activity is defined as 1 nmol of 2-naphthylamine released per minute at 25° C. at pH 7.4. IC50 values are determined, i.e. the concentration of test compound required for 50% inhibition of the release of 2-naphthylamine.
The test compound is dissolved in dimethyl sulfoxide or 0.25 M sodium bicarbonate solution, and the solution is diluted with pH 7.4 buffer to the desired concentration.
In vitro testing is most appropriate for the free phosphono/carboxylic acids of the invention.

SMILES: O=C(O)CCNC(=O)[C@H](Cc1ccc(-c2ccccc2)cc1)NCP(=O)(Oc1ccccc1)Oc1ccccc1 [(S)-N-[2-(diphenylphosphonomethylamino)-3-(4-biphenylyl)propionyl]-3-aminopropionic acid]
- reduction in blood pressure [1]: significant reduction in blood pressure
- increase in plasma ANF levels (plasma ANF levels): significant increases in plasma ANF levels
- potentiation of ANF-induced natriuresis (ANF-induced natriuresis): significant potentiation of ANF-induced natriuresis

SMILES: O=C(O)CCNC(=O)[C@H](Cc1ccc(-c2ccccc2)cc1)NCP(=O)(O)O [(S)-antipode, S-(+)-N-[2-(phosphonomethylamino)-3-(4-biphenylyl)-propionyl]-3-aminopropionic acid]
- IC50 [2]: ~1.6 nM

SMILES: O=C(O)CCNC(=O)C(Cc1ccc(-c2ccccc2)cc1)NCP(=O)(O)O (centres unmarked) [N-[2-(phosphonomethylamino)-3-(4-biphenylyl)-propionyl]-3-aminopropionic acid]
- IC50 [2]: ~4.3 nM
